Laboratory results taken from ChEMBL document CHEMBL1201862, “PubChem BioAssay data set” (2004).
The source made the active and inactive calls.

Columns and labels:
[1] = molecular target: T1, Alkaline phosphatase, tissue-nonspecific isozyme (Homo sapiens, UniProt P05186)
T1 sequence (P05186 whole entry): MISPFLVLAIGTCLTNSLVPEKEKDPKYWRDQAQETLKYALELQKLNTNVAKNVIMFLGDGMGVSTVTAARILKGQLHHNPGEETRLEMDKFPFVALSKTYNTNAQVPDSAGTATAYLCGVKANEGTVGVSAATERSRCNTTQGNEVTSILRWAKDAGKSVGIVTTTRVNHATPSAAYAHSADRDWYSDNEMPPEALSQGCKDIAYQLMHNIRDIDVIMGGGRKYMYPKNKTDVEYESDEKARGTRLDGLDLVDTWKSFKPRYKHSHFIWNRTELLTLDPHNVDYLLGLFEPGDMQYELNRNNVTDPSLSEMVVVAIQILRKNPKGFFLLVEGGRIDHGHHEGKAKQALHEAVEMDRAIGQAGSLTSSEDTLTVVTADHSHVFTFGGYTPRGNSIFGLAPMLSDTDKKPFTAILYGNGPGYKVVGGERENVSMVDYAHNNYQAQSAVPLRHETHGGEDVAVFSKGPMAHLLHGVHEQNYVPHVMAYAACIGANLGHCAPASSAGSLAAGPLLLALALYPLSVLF

[2] = molecular target: T2, Polyadenylate-binding protein 1 (Homo sapiens, UniProt P11940); test: MLLE binding blockers, Cy5 peptide tracer – biochemical, fluorescence polarization, Cy5-PAM2 peptide, secondary, miRNA deadenylation inhibitor project, dose response (AID 602260); assay type: functional; settings: read-out: IC50_Mean
[3] = molecular target: Female germline-specific tumor suppressor gld-1 (Caenorhabditis elegans, UniProt Q17339); test: blockers of GLD-1/TGE RNA complex formation – biochemical, fluorescence polarization, C. elegans, dose response (AID 2802);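 note: fluorescence polarization of labeled TGE RNA bound by purified gld-1 protein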
Protein Rev = Protein Rev (Human immunodeficiency virus type 1 group M subtype B (isolate HXB2)(HIV-1), UniProt P04618); test: blockers of HIV Rev/RRE RNA complex – biochemical, fluorescence polarization, HIV-1, dose response (AID 434976); design: species or system Human immunodeficiency virus 1
[4] = molecular target: T2, Polyadenylate-binding protein 1; test: MLLE domain peptide-binding blockers, IC50 – biochemical, fluorescence polarization, FITC-PAM2 peptide, dose response (AID 602259); assay type: functional; settings: read-out: IC50_Mean
[5] = molecular target: T3, Corticotropin-releasing factor receptor 2/Corticotropin-releasing factor-binding protein (Homo sapiens, UniProt P24387+Q13324); test: activators of CRF receptor 2 with binding protein – uHTS hits, confirmation (AID 602473); assay type: functional; settings: read-out: EC50_Mean
T3 sequence (Q13324 whole entry): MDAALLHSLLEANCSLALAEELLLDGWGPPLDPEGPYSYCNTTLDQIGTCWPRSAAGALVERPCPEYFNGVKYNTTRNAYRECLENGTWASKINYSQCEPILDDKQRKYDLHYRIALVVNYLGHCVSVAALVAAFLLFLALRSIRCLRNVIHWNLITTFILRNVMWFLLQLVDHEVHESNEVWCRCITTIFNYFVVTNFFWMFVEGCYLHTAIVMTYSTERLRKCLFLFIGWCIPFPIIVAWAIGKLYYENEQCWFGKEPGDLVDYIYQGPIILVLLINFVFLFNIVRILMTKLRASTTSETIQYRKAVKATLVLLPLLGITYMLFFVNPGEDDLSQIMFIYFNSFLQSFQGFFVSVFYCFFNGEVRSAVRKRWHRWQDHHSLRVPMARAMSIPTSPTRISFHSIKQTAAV
T3 sequence (P24387 whole entry): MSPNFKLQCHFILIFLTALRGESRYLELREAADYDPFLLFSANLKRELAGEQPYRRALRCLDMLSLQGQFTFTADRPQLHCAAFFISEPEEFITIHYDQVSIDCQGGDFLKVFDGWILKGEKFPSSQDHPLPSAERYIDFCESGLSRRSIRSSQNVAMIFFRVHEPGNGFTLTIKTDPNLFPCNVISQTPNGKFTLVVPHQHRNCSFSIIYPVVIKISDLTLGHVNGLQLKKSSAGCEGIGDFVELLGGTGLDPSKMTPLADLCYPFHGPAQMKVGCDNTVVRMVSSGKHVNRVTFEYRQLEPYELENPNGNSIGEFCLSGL

[6] = molecular target: T4, Sentrin-specific protease 1 (Homo sapiens, UniProt Q9P0U3); test: SENP1 catalytic domain blockers, concentration series – biochemical, kinetic FRET, dose response (AID 651697); assay type: functional; settings: read-out: IC50_Mean
T4 sequence (Q9P0U3 whole entry): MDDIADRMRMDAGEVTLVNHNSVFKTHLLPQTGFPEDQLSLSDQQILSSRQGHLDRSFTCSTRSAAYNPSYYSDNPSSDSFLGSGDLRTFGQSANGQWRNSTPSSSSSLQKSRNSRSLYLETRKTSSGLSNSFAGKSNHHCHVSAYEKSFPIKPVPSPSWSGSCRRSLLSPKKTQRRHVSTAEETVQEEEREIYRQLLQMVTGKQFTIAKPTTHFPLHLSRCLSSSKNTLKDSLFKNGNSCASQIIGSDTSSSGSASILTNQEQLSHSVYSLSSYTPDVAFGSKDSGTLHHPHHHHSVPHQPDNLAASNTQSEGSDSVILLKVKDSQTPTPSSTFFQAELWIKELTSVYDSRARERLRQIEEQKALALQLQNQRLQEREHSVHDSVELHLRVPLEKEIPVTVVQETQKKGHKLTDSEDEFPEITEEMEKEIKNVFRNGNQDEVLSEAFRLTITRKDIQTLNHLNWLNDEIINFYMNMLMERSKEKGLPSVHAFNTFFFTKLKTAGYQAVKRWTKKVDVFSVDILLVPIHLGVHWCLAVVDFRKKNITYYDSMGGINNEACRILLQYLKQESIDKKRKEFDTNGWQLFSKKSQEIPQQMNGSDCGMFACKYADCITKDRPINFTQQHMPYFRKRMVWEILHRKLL

[7] = molecular target: T4, Sentrin-specific protease 1; test: Dose response confirmation of small molecule inhibitors of the catalytic domain of the SUMO protease, SENP1 in a FRET assay.; assay type: functional; settings: read-out: IC50_Mean
[8] = viability loss in HEK293 cells – cell-based, plate reader, cherry-picked samples, cytotoxicity control, dose response (AID 743446); assay type: functional
[9] = toxicity toward HepG2 liver cells – cell-based, plate reader, cherry-pick, antagonist series, cytotoxicity control, dose response (AID 743416); assay type: functional
HEK293 [10] = test: Cytotoxicity assay in HEK293 cells. [Related pubchem assays (depositor defined):AID1266, AID1269, AID1270, AID1271, AID1280, AID1281, AID1282, AID1283, AID1287, AID1289, AID1290, AID1291, AID1292, AID1293, AID1294, AID1295, AID1299, AID1302, AID1364, AID1365, AID1366, AID1367, AID1369, AID1370, AID1371, AID1372, AID1373, AID1374, AID1375, AID1384 …; assay type: functional, cell-based; settings: Homo sapiens
[11] = blockers of bursicon-stimulated LGR2 cAMP reporter – cell-based, HEK293, CRE-luciferase reporter, cherry pick, set 2, dose response (AID 743343); assay type: functional;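 note: transfected cells were stimulated with diluted bursicon conditioned medium after compound addition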
[12] = blockade of melanocortin 4 receptor signaling – cell-based, plate reader, cherry pick, counter-screen for LGR2 antagonist project, dose response (AID 743444); assay type: functional;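 note: transfected HEK 293 cells stimulated with alpha-MSH peptide; potency of inhibitors of the alpha-MSH evoked signal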
[13] = molecular target: Photoreceptor-specific nuclear receptor (Homo sapiens, UniProt Q9Y5X4); assay type: functional, cell-based;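 note: CHO-S cells with Gal4-NCOR and VP16-NR2E3 two-hybrid luciferase reporter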
HEK293 [14] = test: PMA/Ionomycin induced NF-kB luciferase assay in 293- NF-kB-Luc stable cells. [Related pubchem assays: 1299, 1270, 1295, 1375, 1287, 1281, 1293, 1291, 1289, 1280, 465, 1364, 1282, 1372, 1365, 1370, 1367, 1366, 1269, 1373, 1292, 1290, 1302, 1371, 1283, 1271, 1294, 1374, 1368, 1369 ]; assay type: functional, cell-based; settings: Homo sapiens
[15] = molecular target: Luciferin 4-monooxygenase (Photinus pyralis, UniProt P08659); test: In vitro luciferase assay using purified luciferase. [Related pubchem assays: 1299, 1270, 1295, 1375, 1287, 1281, 1293, 1291, 1289, 1280, 465, 1364, 1282, 1372, 1365, 1370, 1367, 1366, 1266, 1373, 1292, 1290, 1302, 1371, 1283, 1271, 1294, 1374, 1368, 1369 ]
[16] = A549 cell cytotoxicity, dose response, cytotoxicity control, plate reader, cherry-pick, antagonist series (AID 743412); assay type: functional, cell-based
HEK293 [17] = test: TNF Induced NF-kB Luciferase in 293-NF-kB-Luc Stable Cells. [Related pubchem assays: 1266, 1299, 1269, 1373, 1292, 1290, 1302, 1371, 1283, 1270, 1295, 1271, 1375, 1294, 1374, 1281, 1293, 1291, 1289, 1280, 465, 1368, 1364, 1282, 1372, 1365, 1369, 1370, 1367, 1366 ]; assay type: functional, cell-based; settings: Homo sapiens
[18] = molecular target: T5, Neuropeptides B/W receptor type 1 (Homo sapiens, UniProt P48145); test: human NPBW1 receptor blockade, IC50 – cell-based, fluorescence, dose response, late-stage follow-up (AID 463251); assay type: functional
T5 sequence (P48145 whole entry): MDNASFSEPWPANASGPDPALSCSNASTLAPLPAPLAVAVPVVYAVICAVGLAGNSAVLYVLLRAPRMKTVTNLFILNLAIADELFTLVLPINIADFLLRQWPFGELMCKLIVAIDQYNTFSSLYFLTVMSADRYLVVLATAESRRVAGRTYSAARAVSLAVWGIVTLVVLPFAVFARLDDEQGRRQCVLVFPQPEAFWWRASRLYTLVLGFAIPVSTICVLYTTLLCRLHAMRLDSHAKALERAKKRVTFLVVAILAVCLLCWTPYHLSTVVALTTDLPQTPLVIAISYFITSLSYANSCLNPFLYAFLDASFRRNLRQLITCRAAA

[19] = molecular target: Melanin-concentrating hormone receptor 1 (Homo sapiens, UniProt Q99705); test: Late-stage fluorescence-based counterscreen for antagonists of the G-protein coupled receptor 7 (GPR7): cell-based dose response assay to identify antagonists of the melanin-concentrating hormone receptor 1 (MCHR1). [Related pubchem assays (depositor defined):AID1861, AID1880, AID1952, AID2148, AID2251, AID2257, AID485339]; assay type: functional;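 note: stimulated with 30 nM MCH peptide agonist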
Chain of Melanin-concentrating hormone receptor 1 (Q99705 whole entry): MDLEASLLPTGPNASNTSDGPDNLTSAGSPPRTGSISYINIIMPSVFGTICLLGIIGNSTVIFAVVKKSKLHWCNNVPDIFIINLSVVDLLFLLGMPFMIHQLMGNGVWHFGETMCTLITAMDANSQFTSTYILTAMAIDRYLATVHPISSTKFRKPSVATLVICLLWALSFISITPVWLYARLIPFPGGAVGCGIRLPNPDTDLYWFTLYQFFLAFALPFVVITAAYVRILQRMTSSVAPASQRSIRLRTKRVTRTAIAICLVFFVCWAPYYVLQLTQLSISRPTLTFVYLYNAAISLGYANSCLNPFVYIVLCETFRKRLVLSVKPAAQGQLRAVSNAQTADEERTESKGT

T2 sequence (P11940 whole entry): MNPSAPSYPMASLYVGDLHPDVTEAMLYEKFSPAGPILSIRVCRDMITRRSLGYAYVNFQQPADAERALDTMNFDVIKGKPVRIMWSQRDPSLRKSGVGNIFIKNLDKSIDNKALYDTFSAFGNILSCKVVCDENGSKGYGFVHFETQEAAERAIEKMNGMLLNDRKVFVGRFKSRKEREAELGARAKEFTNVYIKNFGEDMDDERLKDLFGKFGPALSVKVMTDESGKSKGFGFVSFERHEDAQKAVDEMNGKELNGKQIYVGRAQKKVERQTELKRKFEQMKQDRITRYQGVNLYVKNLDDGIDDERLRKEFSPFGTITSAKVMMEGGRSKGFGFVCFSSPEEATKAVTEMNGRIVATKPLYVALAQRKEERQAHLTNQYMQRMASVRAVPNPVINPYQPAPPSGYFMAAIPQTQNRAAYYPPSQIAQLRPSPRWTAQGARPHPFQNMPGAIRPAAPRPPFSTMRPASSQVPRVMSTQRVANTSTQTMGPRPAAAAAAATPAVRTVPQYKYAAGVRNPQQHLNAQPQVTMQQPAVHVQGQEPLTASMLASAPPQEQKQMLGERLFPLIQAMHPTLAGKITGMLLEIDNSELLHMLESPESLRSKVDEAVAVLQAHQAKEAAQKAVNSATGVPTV
Chain of Female germline-specific tumor suppressor gld-1 (Q17339 whole entry): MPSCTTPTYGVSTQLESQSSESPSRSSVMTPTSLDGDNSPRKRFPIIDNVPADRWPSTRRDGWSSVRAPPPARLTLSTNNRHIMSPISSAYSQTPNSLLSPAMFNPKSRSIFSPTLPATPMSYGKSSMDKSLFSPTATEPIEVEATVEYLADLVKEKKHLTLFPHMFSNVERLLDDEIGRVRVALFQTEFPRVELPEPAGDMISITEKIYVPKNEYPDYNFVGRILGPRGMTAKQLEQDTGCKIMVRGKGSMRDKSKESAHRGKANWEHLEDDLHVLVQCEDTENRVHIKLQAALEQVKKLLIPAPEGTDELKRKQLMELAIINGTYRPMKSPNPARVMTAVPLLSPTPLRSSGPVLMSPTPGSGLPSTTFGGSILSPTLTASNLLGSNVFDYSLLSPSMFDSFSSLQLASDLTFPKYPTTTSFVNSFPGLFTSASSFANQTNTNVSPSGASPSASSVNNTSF
Chain of Photoreceptor-specific nuclear receptor (Q9Y5X4 whole entry, the tested form may be a part): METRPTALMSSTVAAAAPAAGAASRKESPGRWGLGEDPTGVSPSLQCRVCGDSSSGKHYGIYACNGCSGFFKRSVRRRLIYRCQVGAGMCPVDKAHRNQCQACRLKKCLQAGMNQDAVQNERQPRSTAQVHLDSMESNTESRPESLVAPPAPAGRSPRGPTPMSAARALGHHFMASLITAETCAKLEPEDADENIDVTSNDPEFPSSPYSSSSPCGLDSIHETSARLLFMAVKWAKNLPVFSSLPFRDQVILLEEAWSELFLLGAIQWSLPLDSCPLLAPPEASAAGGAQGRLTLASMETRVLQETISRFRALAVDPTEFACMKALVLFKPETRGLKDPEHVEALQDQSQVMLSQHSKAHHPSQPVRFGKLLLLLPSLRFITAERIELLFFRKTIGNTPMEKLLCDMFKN
Chain of Luciferin 4-monooxygenase (P08659 whole entry): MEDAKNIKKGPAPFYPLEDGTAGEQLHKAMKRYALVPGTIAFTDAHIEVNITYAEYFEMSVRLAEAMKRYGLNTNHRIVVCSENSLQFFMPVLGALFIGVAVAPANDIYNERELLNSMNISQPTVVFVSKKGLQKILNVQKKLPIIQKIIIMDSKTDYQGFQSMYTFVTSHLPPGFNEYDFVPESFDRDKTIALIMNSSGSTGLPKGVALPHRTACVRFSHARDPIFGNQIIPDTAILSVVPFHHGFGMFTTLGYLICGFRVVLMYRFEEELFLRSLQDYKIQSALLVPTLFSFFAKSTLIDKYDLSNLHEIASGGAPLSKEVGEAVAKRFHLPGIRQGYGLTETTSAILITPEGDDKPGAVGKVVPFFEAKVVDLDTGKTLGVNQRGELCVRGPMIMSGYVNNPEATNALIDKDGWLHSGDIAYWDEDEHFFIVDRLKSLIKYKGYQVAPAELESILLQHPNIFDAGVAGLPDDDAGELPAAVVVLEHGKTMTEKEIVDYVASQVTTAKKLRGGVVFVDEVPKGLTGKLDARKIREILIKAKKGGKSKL
Chain of Protein Rev (P04618 whole entry, the tested form may be a part): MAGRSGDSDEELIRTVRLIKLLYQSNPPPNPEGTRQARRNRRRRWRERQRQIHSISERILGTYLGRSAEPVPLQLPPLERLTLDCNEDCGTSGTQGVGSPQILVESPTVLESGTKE

For `Cc1c(Cl)c(C(=O)NNC(=S)Nc2ccccc2)nn1C`, the EC50 [1] was 50.5 µM (not active).

With `O=C1C2=C(SCCS2)C(=O)N1CCCO` the IC50 [2] was > 66 µM (inactive), the IC50 [3] was 4.07 µM (active) and the IC50 (Protein Rev) was > 75.4 µM (not active). For the same compound, the IC50 [4] was 28 µM (inactive), the EC50 [5] was > 53 µM (inactive) and the IC50 [6] was 20.5 µM (inactive). The IC50 [7] was 35.2 µM (inactive).

In the case of `Clc1ccc(-n2ncc3c(N4CCCCCC4)ncnc32)cc1`, the AC50 [8] is reported as > 52 µM (inactive), the AC50 [9] is reported as > 52 µM (inactive) and the EC50 (HEK293 [10]) is reported as > 13.2 µM (inactive). For the same compound, the AC50 [11] was < 0.068 µM (active), the AC50 [12] was < 0.068 µM (active) and the IC50 [13] was 4.43 µM (active). For the same compound, the EC50 (HEK293 [14]) was 2.77 µM (active), the EC50 [15] was > 8 µM (not active) and the AC50 [16] was > 52 µM (inactive). The EC50 (HEK293 [17]) was 3.73 µM (active).

For `Cc1cccc(CN2CCCCC2C(=O)N2CCN(c3ccc([N+](=O)[O-])cc3)CC2)c1` (stereo not given), the IC50 [18] was 10 µM (active) and the IC50 [19] was 6.1 µM (active).
